Measurements taken from patent US20110224300A1, “USE OF POTASSIUM 2-(a- HYDROXYPENTYL) BENZOATE IN THE MANUFACTURE OF MEDICAMENTS FOR PREVENTING AND/OR TREATING SENILE [sequence]” (Institute of Mataria Medica, Chinese Academy of Me, priority 2008, published 2011).
Marks after values point to notes of the source that are not given here.

Tests used:
[1] = system: BDNF; assay: BDNF immunohistochemistry in 2-VO rats; type: in vivo, rat; conditions: for BDNF expression in hippocampus CA1, CA2, CA3 area: 21 days
Procedure: The method for tissue fixation was described above. Serial coronal sections (40 μm) of the brains were cut through the dorsal hippocampus on a freezing microtome and collected in 6-well plates containing 0.01 M PBS. The detection of GFAP and BDNF immunoreactivity was performed using a conventional avidin-biotin-immunoperoxidease technique.
For quantitative analysis, one from every five samples in a continuous series of hippocampal or cortical tissue sections was taken, and was processed immunohistochemically. Thus, three slides were taken from each rat, and were read under an objective (×1.6) microscope. The total area of positively stained neurons was counted with Image-pro Plus 5.0 software.

[2] = system: permanent 2-VO rats (chronic cerebral hypoperfusion); assay: Morris water maze in permanent 2-VO (BCCAO) rats; type: in vivo, rat; conditions: for probe trial: time in the platform quadrant and time to cross the platform location / escape latency in the water maze task: 2-VO rats; for probe trial: time in the platform quadrant and time to cross the platform location: compared to 2-VO animals; for escape latency in the water maze task: vs vehicle
Description: Chronic cerebral hypoperfusion was proceeded by a permanent, bilateral occlusion of the common carotid arteries (2-VO) of adult rats. The rats were anesthetized with 10% trichloro-acetaldehyde, and temperature probe was inserted into the rectum, and a separate heating lamp was used to maintain rectal temperature at normothermic level. After a midline neck skin incision, the common carotid artery were exposed and ligated by a 5-0 nylon suture.
Rats were randomly divided into six experimental groups (20 rats/each group): one sham-operated group, one vehicle control group, one piracetam-treated group (600 mg/kg), and three dl-PHPB-treated groups (13, 39, and 129 mg/kg). In 10 days after onset of 2-VO, drugs and vehicle were administered orally to rats for 21 days (one time/each day). The spatial learning and memory capability of rats were detected by Morris water maze in the 25-30 days after operation. The Morris water test was commenced at 40 min after drugs treated. The biochemical and pathology assays were conducted later (in 24 h) after behavioral tests.
Subjects were tested in a Morris water maze. This test is based on a standardized assessment of spatial learning ability. The water maze apparatus consisted of a circular, stainless pool (120 cm in diameter, 60 cm in height). It was placed in a dimly lit, sound-proof test room. Multiple distant cues around the room (window, cabinets, furniture) were kept in the same location throughout the experiments. The water was filled to a depth of 40 cm at 25±1° C. and was made opaque by adding milk powder to prevent visualization of the platform. A transparent platform (10 cm diameter) was put 1.5 cm below the surface of the water. The tank was divided into four quadrants with the platform in a fixed position in one quadrant. The subjects were placed into the maze facing the pool wall and were allowed two trials per day, 60 s per trial, to find the hidden platform. If the subject found the platform within the 60 s, it was given a 10-s rest period on the platform between trials. If the pedestal was not located within the time allotted, the subject was placed on to the platform and allowed 10 s until the next trial. The escape latency (time to reach the platform) was used to assess acquisition of the water maze task. Sessions were repeated for five consecutive days. On the sixth day, the platform was removed and the rat was allowed to search for the platform for 60 s (probe test). The time in the platform quadrant and latency time to cross platform location were recorded to measure the spatial learning ability without the influence of chance encounters with the platform. The Morris water maze sessions were recorded with a video camera for offline analysis.

[3] = system: MDA; assay: MDA level of brain tissues from SAMP8 mice; type: in vivo; conditions: 35 days; for MDA level in the hippocampus / decrease of hippocampus MDA level compared with SAMP8: without statistical significance
Procedure: The biochemical assays were conducted later (in 24 h) after behavioral testing. Eight rats in each group were anesthetized with ether and sacrificed. The brains were quickly removed and cleaned with ice-cold saline. Then the parietal cortex and hippocampus were isolated. For biochemical analysis, the tissues were weighed and homogenized in ice-cold saline with the proportion of 1:9 (w/v). Homogenization (IKA, Germany) was carried out for 2 min in an ice bath. After the homogenates were centrifuged at 2,000×g for 10 min at 4° C. (Sigma, Germany), the supernatant was used for analytical procedures. The levels of choline acetyltransferase (ChAT) SOD, and MDA activities were determined with commercial colorimetric assay kits (Nanjing Jiancheng Bioengineering Institute, China). The content of protein in the supernatant was determined by Bradford method using BSA as standard.
SAMP8 were divided into three experimental groups randomly: one vehicle control group, and two dl-PHPB-treated groups (50, and 160 mg/kg). Drugs and vehicle were administered orally to SAMP8 mice for 35 days (one time/each day). The spatial learning and memory abilities of SAMP8 mice were detected by Morris water maze and DTT-2 jumping apparatus in 31-35 days. The testing was commenced at 40 min after drugs treated. The biochemical and pathology assays conducted later (in 24 h) after behavioral testing.
The methods as described previously.

[4] = dl-PHPB 13 mg/kg, 1st of 5 M/R/T/L column groups (day not printed)
[5] = dl-PHPB 13 mg/kg, 2nd of 5 M/R/T/L column groups (day not printed)
[6] = dl-PHPB 13 mg/kg, 3rd of 5 M/R/T/L column groups (day not printed)
[7] = dl-PHPB 13 mg/kg, 4th of 5 M/R/T/L column groups (day not printed)
[8] = dl-PHPB 13 mg/kg, 5th of 5 M/R/T/L column groups (day not printed)
[9] = dl-PHPB 39 mg/kg, 1st of 5 M/R/T/L column groups (day not printed)
[10] = dl-PHPB 39 mg/kg, 2nd of 5 M/R/T/L column groups (day not printed)
[11] = dl-PHPB 39 mg/kg, 3rd of 5 M/R/T/L column groups (day not printed)
[12] = dl-PHPB 39 mg/kg, 4th of 5 M/R/T/L column groups (day not printed)
[13] = dl-PHPB 39 mg/kg, 5th of 5 M/R/T/L column groups (day not printed)
[14] = dl-PHPB 129 mg/kg, 1st of 5 M/R/T/L column groups (day not printed)
[15] = dl-PHPB 129 mg/kg, 2nd of 5 M/R/T/L column groups (day not printed)
[16] = dl-PHPB 129 mg/kg, 3rd of 5 M/R/T/L column groups (day not printed)
[17] = dl-PHPB 129 mg/kg, 4th of 5 M/R/T/L column groups (day not printed)
[18] = dl-PHPB 129 mg/kg, 5th of 5 M/R/T/L column groups (day not printed)

In the case of `CCCCC(O)c1ccccc1C(=O)[O-].[K+]` (racemic) [dl-PHPB, Potassium 2-(1-Hydroxypentyl)-benzoate], the “BDNF expression in hippocampus CA1, CA2, CA3 area” value ([1]; dl-PHPB 39 mg/kg, P<0.05 or P<0.01) is reported as “significantly increased BDNF expression”, the “BDNF expression in hippocampus CA1, CA2, CA3 area” value ([1]; dl-PHPB 129 mg/kg) is reported as “only a trend without statistical significance” and the “expression of BDNF in the cortex (staining intensity)” value ([1]; strongest at 39 mg/kg, succeeded by 129 mg/kg and 13 mg/kg) is reported as “increase the expression of BDNF”. The “probe trial: time in the platform quadrant and time to cross the platform location” value ([2]; 13 mg/kg orally 21 days) was “markedly showed ameliorative effect”, the “escape latency in the water maze task” value ([2]; 13 mg/kg orally daily for 21 days) was “did not differ from the vehicle control animals” and the “probe trial: time in the platform quadrant and time to cross the platform location” value ([2]; 39 mg/kg orally 21 days) was “markedly showed ameliorative effect”. For the same molecule, the “escape latency in the water maze task” value ([2]; 39 mg/kg orally daily for 21 days) was “significantly rescued learning impairment”, the “escape latency in the water maze task” value ([2]; 129 mg/kg orally daily for 21 days) was “significantly rescued learning impairment” and the “search strategy times, linear mode (L)” value [2, 4] was 1. The “search strategy times, marginal mode (M)” value [2, 4] was 11, the “search strategy times, random mode (R)” value [2, 4] was 13 and the “search strategy times, tendency mode (T)” value [2, 4] was 11. For the same molecule, the “search strategy times, linear mode (L)” value [2, 5] was 6, the “search strategy times, marginal mode (M)” value [2, 5] was 3 and the “search strategy times, random mode (R)” value [2, 5] was 11. The “search strategy times, tendency mode (T)” value [2, 5] was 16, the “search strategy times, linear mode (L)” value [2, 6] was 5 and the “search strategy times, marginal mode (M)” value [2, 6] was 0. For the same molecule, the “search strategy times, random mode (R)” value [2, 6] was 10, the “search strategy times, tendency mode (T)” value [2, 6] was 21 and the “search strategy times, linear mode (L)” value [2, 7] was 7. For the same molecule, the “search strategy times, marginal mode (M)” value [2, 7] was 0, the “search strategy times, random mode (R)” value [2, 7] was 9 and the “search strategy times, tendency mode (T)” value [2, 7] was 20. For the same molecule, the “search strategy times, linear mode (L)” value [2, 8] was 4, the “search strategy times, marginal mode (M)” value [2, 8] was 0 and the “search strategy times, random mode (R)” value [2, 8] was 5. For the same molecule, the “search strategy times, tendency mode (T)” value [2, 8] was 26, the “search strategy times, linear mode (L)” value [2, 9] was 2 and the “search strategy times, marginal mode (M)” value [2, 9] was 7. The “search strategy times, random mode (R)” value [2, 9] was 15, the “search strategy times, tendency mode (T)” value [2, 9] was 12 and the “search strategy times, linear mode (L)” value [2, 10] was 4. For the same molecule, the “search strategy times, marginal mode (M)” value [2, 10] was 3, the “search strategy times, random mode (R)” value [2, 10] was 9 and the “search strategy times, tendency mode (T)” value [2, 10] was 18. For the same molecule, the “search strategy times, linear mode (L)” value [2, 11] was 3, the “search strategy times, marginal mode (M)” value [2, 11] was 1 and the “search strategy times, random mode (R)” value [2, 11] was 13. For the same molecule, the “search strategy times, tendency mode (T)” value [2, 11] was 17, the “search strategy times, linear mode (L)” value [2, 12] was 9 and the “search strategy times, marginal mode (M)” value [2, 12] was 0. The “search strategy times, random mode (R)” value [2, 12] was 7, the “search strategy times, tendency mode (T)” value [2, 12] was 18 and the “search strategy times, linear mode (L)” value [2, 13] was 17*. For the same molecule, the “search strategy times, marginal mode (M)” value [2, 13] was 0, the “search strategy times, random mode (R)” value [2, 13] was 4 and the “search strategy times, tendency mode (T)” value [2, 13] was 13. For the same molecule, the “search strategy times, linear mode (L)” value [2, 14] was 4, the “search strategy times, marginal mode (M)” value [2, 14] was 4 and the “search strategy times, random mode (R)” value [2, 14] was 16. The “search strategy times, tendency mode (T)” value [2, 14] was 10, the “search strategy times, linear mode (L)” value [2, 15] was 1 and the “search strategy times, marginal mode (M)” value [2, 15] was 2. For the same molecule, the “search strategy times, random mode (R)” value [2, 15] was 12, the “search strategy times, tendency mode (T)” value [2, 15] was 19 and the “search strategy times, linear mode (L)” value [2, 16] was 6. For the same molecule, the “search strategy times, marginal mode (M)” value [2, 16] was 0, the “search strategy times, random mode (R)” value [2, 16] was 7 and the “search strategy times, tendency mode (T)” value [2, 16] was 21. For the same molecule, the “search strategy times, linear mode (L)” value [2, 17] was 7, the “search strategy times, marginal mode (M)” value [2, 17] was 1 and the “search strategy times, random mode (R)” value [2, 17] was 5. The “search strategy times, tendency mode (T)” value [2, 17] was 20, the “search strategy times, linear mode (L)” value [2, 18] was 9 and the “search strategy times, marginal mode (M)” value [2, 18] was 0. The “search strategy times, random mode (R)” value [2, 18] was 2, the “search strategy times, tendency mode (T)” value [2, 18] was 23 and the “MDA level in the hippocampus” value ([3]; 50 mg/kg oral) was 1.23±0.05 nmol/mg protein. For the same molecule, the “decrease of hippocampus MDA level compared with SAMP8” value ([3]; 50 mg/kg oral) was 35.3%, the “MDA level in the hippocampus” value ([3]; 160 mg/kg oral) was 1.26±0.09 nmol/mg protein and the “decrease of hippocampus MDA level compared with SAMP8” value ([3]; 160 mg/kg oral) was 33.7%. The “MDA level in the cortex” value ([3]; cortex, data not shown) was “did not significantly improved in MDA level”.
